Tests used:
[1] = biological target: T1, NS3-NS4A protease (Hepatitis C virus genotype 1a, UniProt P27958); experiment: NS3-NS4A protease assay (NS3 inhibition assay, RETS1 substrate), Section B; format: biochemical; details: read-out: NS3-NS4A IC50
T1 construct: Recombinant E. coli or Baculovirus full-length NS3 was diluted to 3.33 μM with assay buffer; made in house; host or cells: E. coli or baculovirus (BV) system
How it was run: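 Full-length NS3 (E. coli or baculovirus) precomplexed with excess NS4A-2 peptide, run at 2 nM (E. coli) or 3 nM (BV) NS3; compounds pre-incubated 10 min at room temperature before RETS1 substrate. Fluorescence (ex 335/em 495 nm) read kinetically 30 min; IC50 from four-parameter fit, converted to Ki via Ki=IC50/(1+[S]/Km).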

[2] = test system: HCV sub-genomic replicon, GS4.3; experiment: Quantitation by ELISA of NPTII in the HCV sub-genomic replicon, GS4.3, Section B; format: cell-based; details: Hepatitis C virus; GS4.3 cells, 72 h incubation; read-out: Replicon EC50
How it was run: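 GS4.3 cells (HuH-7 carrying HCV 1377/NS3-3′ replicon) were treated 72 h at 37 °C with inhibitors in 3-fold dilutions, 1% DMSO, no G418. Lysate NPTII was measured by ELISA (TMB, 450 nm). Signal as % of DMSO control; EC50 from 4-parameter fit.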

T1 sequence (P27958 1027-1657): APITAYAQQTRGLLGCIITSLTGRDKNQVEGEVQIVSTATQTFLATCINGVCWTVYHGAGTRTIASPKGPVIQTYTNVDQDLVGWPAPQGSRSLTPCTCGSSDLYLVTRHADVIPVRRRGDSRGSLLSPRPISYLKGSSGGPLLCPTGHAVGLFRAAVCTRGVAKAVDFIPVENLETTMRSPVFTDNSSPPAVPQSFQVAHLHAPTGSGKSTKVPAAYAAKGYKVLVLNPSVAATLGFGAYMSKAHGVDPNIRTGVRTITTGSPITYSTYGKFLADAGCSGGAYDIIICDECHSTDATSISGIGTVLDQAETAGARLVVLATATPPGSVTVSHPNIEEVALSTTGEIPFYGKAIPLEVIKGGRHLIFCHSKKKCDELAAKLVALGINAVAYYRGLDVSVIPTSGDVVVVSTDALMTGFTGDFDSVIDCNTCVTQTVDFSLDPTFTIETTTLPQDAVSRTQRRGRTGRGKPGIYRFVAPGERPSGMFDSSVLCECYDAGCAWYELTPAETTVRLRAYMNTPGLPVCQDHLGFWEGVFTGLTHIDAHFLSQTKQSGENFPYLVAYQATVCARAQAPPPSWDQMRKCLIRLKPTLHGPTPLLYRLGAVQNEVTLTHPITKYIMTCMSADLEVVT

Compound	IC50 [1] [µM]	EC50 [2] [µM]
CN(C)c1cccc2c1CCN(C(=O)O[C@@H]1C[C@H]3C(=O)N[C@]4(C(=O)O)C[C@H]4/C=C\CCCCC[C@H](NC(=O)OC(C)(C)C)C(=O)N3C1)C2 [AR00315997, (1S,4R,6S,14S,18R)-14-tert-Butoxycarbonylamino-18-(5-dimethylamino-3,4-dihydro-1H-isoquinoline-2-carbonyloxy)-2,15-dioxo-3,16-diaza-tricyclo[14.3.0.0^4,6]nonadec-7-ene-4-carboxylic acid]	< 1	< 10
CC(C)(C)OC(=O)N[C@H]1CCCCC/C=C\[C@@H]2C[C@@]2(C(=O)O)NC(=O)[C@@H]2C[C@@H](OC(=O)N3Cc4ccc(Cl)cc4C3)CN2C1=O [AR00315998, (1S,4R,6S,14S,18R)-14-tert-Butoxycarbonylamino-18-(5-chloro-1,3-dihydro-isoindole-2-carbonyloxy)-2,15-dioxo-3,16-diaza-tricyclo[14.3.0.0^4,6]nonadec-7-ene-4-carboxylic acid]	< 1	< 10
CC(C)(C)OC(=O)N[C@H]1CCCCC/C=C\[C@@H]2C[C@@]2(C(=O)O)NC(=O)[C@@H]2C[C@@H](OC(=O)N3Cc4cc(Cl)c(Cl)cc4C3)CN2C1=O [AR00315999, (1S,4R,6S,14S,18R)-14-tert-Butoxycarbonylamino-18-(5,6-dichloro-1,3-dihydro-isoindole-2-carbonyloxy)-2,15-dioxo-3,16-diaza-tricyclo[14.3.0.0^4,6]nonadec-7-ene-4-carboxylic acid]	< 1	< 10
CC(C)(C)NC(=O)N[C@H]1CCCCC/C=C\[C@@H]2C[C@@]2(C(=O)NS(=O)(=O)C2CC2)NC(=O)[C@@H]2C[C@@H](OC(=O)N3CCc4ccccc4C3)CN2C1=O [AR00320001, (1S,4R,6S,14S,18R)-3,4-Dihydro-1H-isoquinoline-2-carboxylic acid 14-(3-tert-butyl-ureido)-4-cyclopropanesulfonylaminocarbonyl-2,15-dioxo-3,16-diaza-tricyclo[14.3.0.0^4,6]nonadec-7-en-18-yl ester]	< 0.1	< 0.1
O=C(N[C@H]1CCCCC/C=C\[C@@H]2C[C@@]2(C(=O)O)NC(=O)[C@@H]2C[C@@H](OC(=O)N3CCc4ccccc4C3)CN2C1=O)OC1CCOCC1 [AR00320002, (1S,4R,6S,14S,18R)-18-(3,4-Dihydro-1H-isoquinoline-2-carbonyloxy)-2,15-dioxo-14-(tetrahydro-pyran-4-yloxycarbonylamino)-3,16-diaza-tricyclo[14.3.0.0^4,6]nonadec-7-ene-4-carboxylic acid]	< 1	< 10
O=C(N[C@H]1CCCCC/C=C\[C@@H]2C[C@@]2(C(=O)NS(=O)(=O)C2CC2)NC(=O)[C@@H]2C[C@@H](OC(=O)N3Cc4ccccc4C3)CN2C1=O)OCCF [AR00320073, (1S,4R,6S,14S,18R)-1,3-Dihydro-isoindole-2-carboxylic acid 4-cyclopropanesulfonylaminocarbonyl-14-(2-fluoro-ethoxycarbonylamino)-2,15-dioxo-3,16-diaza-tricyclo[14.3.0.0^4,6]nonadec-7-en-18-yl ester]	< 0.1	< 0.1
O=C(N[C@H]1CCCCC/C=C\[C@@H]2C[C@@]2(C(=O)O)NC(=O)[C@@H]2C[C@@H](OC(=O)N3Cc4ccccc4C3)CN2C1=O)O[C@@H]1CCOC1 [AR00320074, (1S,4R,6S,14S,18R)-18-(1,3-Dihydro-isoindole-2-carbonyloxy)-2,15-dioxo-14-(tetrahydro-furan-3R-yloxycarbonylamino)-3,16-diaza-tricyclo[14.3.0.0^4,6]nonadec-7-ene-4-carboxylic acid]	< 0.1	< 10
O=C(N[C@H]1CCCCC/C=C\[C@@H]2C[C@@]2(C(=O)O)NC(=O)[C@@H]2C[C@@H](OC(=O)N3Cc4ccccc4C3)CN2C1=O)O[C@H]1CCOC1 [AR00320075, (1S,4R,6S,14S,18R)-18-(1,3-Dihydro-isoindole-2-carbonyloxy)-2,15-dioxo-14-(tetrahydro-furan-3S-yloxycarbonylamino)-3,16-diaza-tricyclo[14.3.0.0^4,6]nonadec-7-ene-4-carboxylic acid]	< 1	< 10
O=C(N[C@H]1CCCCC/C=C\[C@@H]2C[C@@]2(C(=O)O)NC(=O)[C@@H]2C[C@@H](OC(=O)N3Cc4ccccc4C3)CN2C1=O)OCCF [AR00320076, (1S,4R,6S,14S,18R)-18-(1,3-Dihydro-isoindole-2-carbonyloxy)-2,15-dioxo-14-(2-fluoro-ethoxycarbonylamino)-3,16-diaza-tricyclo[14.3.0.0^4,6]nonadec-7-ene-4-carboxylic acid]	< 1	< 10
O=C(N[C@H]1CCCCC/C=C\[C@@H]2C[C@@]2(C(=O)O)NC(=O)[C@@H]2C[C@@H](OC(=O)N3Cc4ccccc4C3)CN2C1=O)OC1CCOCC1 [AR00320077, (1S,4R,6S,14S,18R)-18-(1,3-Dihydro-isoindole-2-carbonyloxy)-2,15-dioxo-14-(tetrahydro-pyran-4-yloxycarbonylamino)-3,16-diaza-tricyclo[14.3.0.0^4,6]nonadec-7-ene-4-carboxylic acid]	< 1	< 10
CC(C)(C)NC(=O)N[C@H]1CCCCC/C=C\[C@@H]2C[C@@]2(C(=O)O)NC(=O)[C@@H]2C[C@@H](OC(=O)N3Cc4ccccc4C3)CN2C1=O [AR00320078, (1S,4R,6S,14S,18R)-14-(3-tert-Butyl-ureido)-18-(1,3-dihydro-isoindole-2-carbonyloxy)-2,15-dioxo-3,16-diaza-tricyclo[14.3.0.0^4,6]nonadec-7-ene-4-carboxylic acid]	< 0.1	< 10
O=C(N[C@H]1CCCCC/C=C\[C@@H]2C[C@@]2(C(=O)NS(=O)(=O)C2CC2)NC(=O)[C@@H]2C[C@@H](OC(=O)N3Cc4ccccc4C3)CN2C1=O)O[C@@H]1CCOC1 [AR00320079, (1S,4R,6S,14S,18R)-1,3-Dihydro-isoindole-2-carboxylic acid 4-cyclopropanesulfonylaminocarbonyl-2,15-dioxo-14-(tetrahydro-furan-3-yloxycarbonylamino)-3,16-diaza-tricyclo[14.3.0.0^4,6]nonadec-7-en-18-yl ester]	< 0.1	< 0.1
O=C(N[C@H]1CCCCC/C=C\[C@@H]2C[C@@]2(C(=O)NS(=O)(=O)C2CC2)NC(=O)[C@@H]2C[C@@H](OC(=O)N3Cc4ccccc4C3)CN2C1=O)O[C@H]1CCOC1 [AR00320080, (1S,4R,6S,14S,18R)-1,3-Dihydro-isoindole-2-carboxylic acid 4-cyclopropanesulfonylaminocarbonyl-2,15-dioxo-14-(tetrahydro-furan-3S-yloxycarbonylamino)-3,16-diaza-tricyclo[14.3.0.0^4,6]nonadec-7-en-18-yl ester]	< 0.1	< 1
O=C(N[C@H]1CCCCC/C=C\[C@@H]2C[C@@]2(C(=O)NS(=O)(=O)C2CC2)NC(=O)[C@@H]2C[C@@H](OC(=O)N3Cc4ccccc4C3)CN2C1=O)OC1CCOCC1 [AR00320081, (1S,4R,6S,14S,18R)-1,3-Dihydro-isoindole-2-carboxylic acid 4-cyclopropanesulfonylaminocarbonyl-2,15-dioxo-14-(tetrahydro-pyran-4-yloxycarbonylamino)-3,16-diaza-tricyclo[14.3.0.0^4,6]nonadec-7-en-18-yl ester]	< 0.1	< 0.1

From patent US7491794B2, “Macrocyclic compounds as inhibitors of viral replication” (Intermune, Inc., priority 2003, dated 2009)
